Where two headings read alike, the source gives them in different places.
Assays:
Format in all cases: in vivo
[1] = test system: melon aphids (Aphis gossypii Glover); experiment: Mite/insect screen, MA; conditions: Aphis gossypii, percent mortality, read-out: MA RESULTS %
Protocol: (§1) The compounds of Examples 1-295 were tested for miticidal and insecticidal activity in the following mite/insect screen.
(§2) Each test compound was formulated by dissolving the compound in acetone/alcohol (50:50) mixture containing 23 g of "TOXIMUL R" (sulfonate/nonionic emulsifier blend) and 13 g of "TOXIMUL S" (sulfonate/nonionic emulsifier blend) per liter. These mixtures were then diluted with water to give the indicated concentrations.
(§3) Other plants in the same treatment pot were left uninfested. The leaves were then sprayed with 5 ml of test solution using a DeVilbiss atomizing sprayer at 10 psi. Both surfaces of the leaves were covered until runoff, and then allowed to dry for one hour. Two uninfested leaves were then excised and placed into a Petri dish containing southern armyworm (Spodopetra eridania Cramer).
(§4) After standard exposure periods, percent mortality was evaluated. […]

[2] = test system: Erysiphe graminis tritici (powdery mildew); experiment: Test 1 greenhouse foliar spray screen, powdery mildew on wheat; conditions: for POWD MDEW: disease control rating, foliar spray on wheat, 400 ppm (+++ at 100 ppm)
[3] = test system: Pyricularia oryzae (rice blast); experiment: whole plant or invertebrate; conditions: for RICE BLAST: disease control rating, foliar spray on rice, 400 ppm (+++ at 100 ppm)
[4] = test system: southern armyworm (Spodopetra eridania Cramer); experiment: Mite/insect screen, SAW; conditions: Spodoptera eridania, percent mortality, read-out: SAW RESULTS %
Protocol: as §1, §2, §3, §4

corn rootworm = experiment: Mite/insect screen, CRW; conditions: percent mortality, read-out: CRW RESULTS %
Protocol: as §1, §2, §4

[5] = test system: Botrytis cinerea (gray mold); experiment: Test 1 greenhouse foliar spray screen, gray mold on grape berries; conditions: for GRAY MOLD: disease control rating, spray on grape berries, 400 ppm (+++ at 100 ppm)
[6] = test system: Pseudoperonospora cubensis (downy mildew); experiment: Test 1 greenhouse foliar spray screen, downy mildew on squash; conditions: disease control rating, foliar spray on squash, 400 ppm (+++ at 100 ppm)
[7] = test system: Twospotted spider mites (Tetranychus urticae Koch); experiment: Mite/insect screen, SM; conditions: Tetranychus urticae, percent mortality, read-out: SM RESULTS %
Protocol: as §1, §2, §3, §4

[8] = test system: Puccinia recondita tritici (leaf rust); experiment: Test 1 greenhouse foliar spray screen, leaf rust on wheat; conditions: for LEAF RUST: disease control rating, foliar spray on wheat, 400 ppm (+++ at 100 ppm)
[9] = foliar, rate 200 ppm, foliar spray on squash
[10] = foliar, rate 400 ppm, foliar spray on squash

SMILES | mortality at 200 ppm ([1]; SAW, SM & MA RATE 200 PPM) [%] | POWD MDEW [2] | RICE BLAST [3] | mortality at 200 ppm ([4]; SAW, SM & MA RATE 200 PPM) [%] | mortality at 12 ppm (corn rootworm; CRW RATE 12.00 PPM) [%] | GRAY MOLD [5] | DOWN MDEW [6] | mortality at 200 ppm ([7]; SAW, SM & MA RATE 200 PPM) [%] | LEAF RUST [8] | mortality at 400 ppm ([1]; SAW, SM & MA RATE 400 PPM) [%] | mortality at 400 ppm ([4]; SAW, SM & MA RATE 400 PPM) [%] | mortality at 24 ppm (corn rootworm; CRW RATE 24.00 PPM) [%] | mortality at 400 ppm ([7]; SAW, SM & MA RATE 400 PPM) [%] | also measured
CCc1cccc2c(NCCc3ccccc3)ccnc12 [Example 29, 8-ethyl-N-(2-phenylethyl)-4-quinolinamine] | 0 | - (0-19% control at 400 ppm) | + (20-89% control at 400 ppm) | 0 | 0 | - (0-19% control at 400 ppm) | - (0-19% control at 400 ppm) | 0 | + (20-89% control at 400 ppm) | – | – | – | – | –
Clc1ccc(CCNc2ccnc3cc(Cl)ccc23)cc1 [Example 37, 7-chloro-N-[2-(4-chlorophenyl)ethyl]-4-quinolinamine] | 0 | + (20-89% control at 400 ppm) | - (0-19% control at 400 ppm) | 0 | 0 | - (0-19% control at 400 ppm) | + (20-89% control at 400 ppm) | 0 | + (20-89% control at 400 ppm) | 0 | 0 | 0 | 0 | –
Fc1cc(F)c2nccc(NCCc3ccc(-c4ccccc4)cc3)c2c1 [Example 40, 6,8-difluoro-N-(2-[1,1'-biphenyl]-4-ylethyl)-4-quinolinamine] | 0 | - (0-19% control at 400 ppm) | ++ (90-100% control at 400 ppm) | 0 | 0 | - (0-19% control at 400 ppm) | + (20-89% control at 400 ppm) | 0 | +++ (90-100% control at 100 ppm) | 0 | 80 | 100 | 0 | –
FC(F)(F)c1ccc2c(NCCc3ccc(Cl)cc3)ccnc2c1 [Example 47, N-[2-(4-chlorophenyl)ethyl]-7-(trifluoromethyl)-4-quinolinamine] | 0 | + (20-89% control at 400 ppm) | - (0-19% control at 400 ppm) | 0 | 0 | - (0-19% control at 400 ppm) | + (20-89% control at 400 ppm) | 0 | + (20-89% control at 400 ppm) | 0 | 0 | 0 | 0 | –
Cc1ccc(CCNc2ccnc3ccc(C)cc23)cc1 [Example 58, 6-methyl-N-[2-(4-methylphenyl)ethyl]-4-quinolinamine] | – | - (0-19% control at 400 ppm) | - (0-19% control at 400 ppm) | – | – | - (0-19% control at 400 ppm) | +++ (90-100% control at 100 ppm) | – | + (20-89% control at 400 ppm) | 0 | 0 | 0 | 0 | –
Clc1ccc(CCNc2ccnc3cc(Cl)cc(Cl)c23)cc1 [Example 59, 5,7-dichloro-N-[2-(4-chlorophenyl)ethyl]-4-quinolinamine] | 0 | + (20-89% control at 400 ppm) | + (20-89% control at 400 ppm) | 0 | 0 | - (0-19% control at 400 ppm) | - (0-19% control at 400 ppm) | 0 | - (0-19% control at 400 ppm) | 0 | 0 | 0 | 0 | –
Clc1ccc2c(NCCc3cccc(Oc4ccccc4)c3)ccnc2c1 [Example 60, 7-chloro-N-[2-(3-phenoxyphenyl)ethyl]-4-quinolinamine] | 0 | ++ (90-100% control at 400 ppm) | +++ (90-100% control at 100 ppm) | 0 | 0 | - (0-19% control at 400 ppm) | +++ (90-100% control at 100 ppm) | 0 | ++ (90-100% control at 400 ppm) | 0 | 0 | 0 | 0 | –
Cc1cccc2c(NCCc3ccc(Cl)cc3)ccnc12 [Example 61, 8-methyl-N-[2-(4-chlorophenyl)ethyl]-4-quinolinamine] | 0 | - (0-19% control at 400 ppm) | ++ (90-100% control at 400 ppm) | 0 | 0 | - (0-19% control at 400 ppm) | +++ (90-100% control at 100 ppm) | 0 | ++ (90-100% control at 400 ppm) | 0 | 0 | 0 | 0 | –
Fc1cccc2c(NCCc3ccccc3Oc3ccccc3)ccnc12 [Example 63, 8-fluoro-N-[2-(2-phenoxyphenyl)ethyl]-4-quinolinamine] | – | - (0-19% control at 400 ppm) | + (20-89% control at 400 ppm) | – | – | - (0-19% control at 400 ppm) | ++ (90-100% control at 400 ppm) | – | +++ (90-100% control at 100 ppm) | 0 | 0 | 0 | 0 | –
Cc1ccc2c(NCCc3ccccc3Oc3ccccc3)ccnc2c1C [Example 64, 7,8-dimethyl-N-[2-(2-phenoxyphenyl)ethyl]-4-quinolinamine] | 0 | + (20-89% control at 400 ppm) | - (0-19% control at 400 ppm) | 60 | 0 | - (0-19% control at 400 ppm) | +++ (90-100% control at 100 ppm) | 0 | + (20-89% control at 400 ppm) | 0 | 0 | 0 | 0 | –
Clc1ccc(CCNc2ccnc3c(Cl)cccc23)cc1 [Example 85, 8-chloro-N-[2-(4-chlorophenyl)ethyl]-4-quinolinamine] | 0 | - (0-19% control at 400 ppm) | - (0-19% control at 400 ppm) | 0 | 0 | - (0-19% control at 400 ppm) | - (0-19% control at 400 ppm) | 0 | + (20-89% control at 400 ppm) | 0 | 0 | 0 | 0 | –
[O-][S+](CCc1ccccc1)c1ccnc2c(F)cccc12 (centres unmarked) [Example 264, 8-fluoro-4-[(2-phenylethyl)sulfinyl]quinoline] | – | – | – | – | – | – | – | – | – | – | – | – | – | mortality at 200 ppm [1, 9]: 0%; mortality at 400 ppm [1, 10]: 0%; pest or weed control at 400 ppm ([2]; Blumeria graminis, foliar, Test 1, foliar spray on wheat, disease control rating at 400 ppm / 100 ppm, read-out: POWD MDEW): 0 to 19%; pest or weed control at 400 ppm ([3]; Pyricularia oryzae, foliar, read-out: RICE BLAST, Test 1, foliar spray on rice, disease control rating at 400 ppm / 100 ppm): 0 to 19%; mortality at 200 ppm [4, 9]: 0%; mortality at 400 ppm [4, 10]: 0%; mortality at 12 ppm (corn rootworm; CRW rate 12.00 ppm): 0%; mortality at 24 ppm (corn rootworm; CRW rate 24.00 ppm): 0%; pest or weed control at 400 ppm ([5]; Botrytis cinerea, foliar, Test 1, spray on grape berries, disease control rating at 400 ppm / 100 ppm): 0 to 19%; mortality at 200 ppm [7, 9]: 0%; mortality at 400 ppm [7, 10]: 0%; pest or weed control at 400 ppm ([8]; Puccinia recondita, foliar, Test 1, foliar spray on wheat, disease control rating at 400 ppm / 100 ppm): 20 to 89%

Source: EP0326331B1, “Substituted quinolines and cinnolines” (Dow AgroSciences LLC, priority 1988, dated 1989)
